{"source": "patent US12661308B2", "about": "“Antimicrobial AZO compounds and uses thereof” (The Regents Of The University Of Colorado, A Body Corporate, priority 2019, dated 2026)", "key": {"[1]": {"test_system": "S. oralis (ATCC 9811) biofilm", "assay": "Biofilm growth study, S. oralis", "type": "cell-based, Streptococcus oralis", "details": "50 mg/mL coated substrate, 24 h time-period", "protocol": "S. oralis and A. actinomycetemcomitans were streaked on a BHI agar plate and incubated at 37° C. and 5% CO2 for 48 h. An isolated colony was inoculated in 5 mL BHI media for 12 h under the same incubation conditions, followed by a 1:10 dilution in BHI media in a 96-well plate containing the substrates of interest. […]\nFollowing biofilm growth in the 96-well plate, the substrates were aseptically removed from the 96-well plate and placed in a vial containing 5 mL of 1× PBS solution. The vials were sonicated in a water bath for 10 min at 45° C., and the wells that previously contained the substrates were briefly sonicated using a probe sonicator (3 W RMS output) for 10 s per well. 200 μL aliquots of the sonicated PBS solution were placed in a 96-well plate and diluted 1:10 in each subsequent row. 20 μL aliquots of the sonicated media wells were placed in a 96-well plate containing 180 μL of PBS solution and diluted 1:10 in each subsequent row. Each column was then plated at a volume of 10 μL on a BHI agar plate in triplicate. The plates were then incubated at 37° C. and 5% CO2 for 48 h. The CFUs on each plate were counted in order to quantify the amount of biofilm remaining on the surface of the substrate and the bacteria remaining in the media after the removal of the substrate using the following equations: […]"}, "S. mutans [2]": {"test_system": "S. mutans", "assay": "DIBAC4(3) membrane potential assay", "type": "cell-based, Streptococcus mutans", "protocol": "Membrane potential assays were performed as described by Wu et al. with minor modifications. Wu et al., Antibacterial activity and membrane-disruptive mechanism of 3-p-trans-coumaroyl-2-hydroxyquinic acid, a novel phenolic compound from pine needles of Cedrus deodara, against Staphylococcus aureus, Molecules (2016), 21(8):1-12. S. mutans bacteria grown for 24 h in BHI broth were inoculated in a 96-well plate as described above. The plate was incubated for 8 h at 37° C. and 5% CO2. 2 μL of 0.1 mg/mL DIBAC4 (3) solution in DMSO was added to each well. The plate was then incubated in the dark overnight. The fluorescence reading was taken in a plate reader at λexcitation=492 nm and λemission=515 nm. Fluorescence values in bacteria-containing wells were normalized against fluorescence values containing the same substrate but no bacteria."}, "S. mutans biofilm": {"test_system": "S. mutans biofilm", "assay": "Live-dead stain microscopy of S. mutans biofilms (Example 4)", "type": "cell-based, Streptococcus mutans", "protocol": "Microscope images were obtained using a Zeiss digital microscope at 6300× magnification using the FITC and CY3 channels. Following biofilm growth, the substrates were placed in a solution of live-dead stains (Invitrogen BacLight™) containing 1.5 μL Component A (SYTO® 9, green fluorescent nucleic acid stain) and 1.5 μL Component B (propidium iodide, red fluorescent nucleic acid stain) in 200 μL of sterile water. The substrates were soaked for 3 min, then gently washed in sterile water for 10 s, dried, and fixed to a glass slide prior to imaging."}, "[3]": {"test_system": "L929 mouse epithelial cells", "assay": "Cytotoxicity study, MTT (Example 4)", "type": "cell-based", "details": "50 mg/mL coated substrates", "protocol": "Cytotoxicity studies were performed as described previously. Riss et al., Cell Viability Assays, (Promega). Briefly, L929 mouse epithelial cells were suspended in cell culture media (DMEM, 10% FBS, 1% penicillin streptomycin) to a final concentration of 1.06×10^5 cells/mL. 1 mL of the suspension was added to each well in a 24-well plate containing the substrates and allowed to grow to confluence. Cell growth was monitored via a phase contrast inverted microscope (Leica, WLD MPS32, Germany). Once confluent, the media was aspirated off, and 500 μL of a 1 mg/mL solution of MTT reagent in DMEM media was added to each well. The plate was incubated for 4 h, and 500 μL of 20% SDS in 50% DMF was added to each well containing the MTT reagent. The plate was incubated for an additional 24 h, then removed and analyzed by an absorbance reading at λ=570 nm (FIG. 10)."}, "[4]": {"test_system": "S. pneumoniae (Pneumonococcus, Pn)", "assay": "Growth study, S. pneumoniae", "type": "cell-based, Streptococcus pneumoniae", "details": "50 mg/ML coated substrates, BHI media, 24 h time-period", "protocol": "A single bacterial colony was inoculated in 4 mL BHI media. The colony was grown to mid-log phase (to approximately OD600=0.4), statically at 37° C., which for was approximately 4 hours for the S. agalactiae GBS, approximately 11 hours for the S. pyogenes GAS, and approximately 6 hours for the S. pneumaoniae. They were diluted 1:5 in 80% glycerol (in water) solution (4 parts culture, 1 part glycerol, for a final glycerol concentration of 16%). In a 96-well plate, each was diluted to 1:100 resulting in a final concentration of 1×10^6 CFU/mL and grown at 37° C. with 5% CO2."}, "S. mutans [5]": {"test_system": "S. mutans", "assay": "Detachment study of S. mutans from OH-AAZO coated substrate with and without light (Example 2)", "type": "cell-based, Streptococcus mutans", "details": "50 mg/mL coating", "protocol": "In this Example, detachment of S. mutans from a polymeric substrate coated with a 50 mg/mL OH-AAZO solution was evaluated. Four conditions were evaluated. The first is where the polymeric substrate is coated with OH-AAZO and exposed to light to produce a photofluidization effect due to the rapid trans cis isomerization (Azo, light or AL). The second is where the polymeric substrate is coated with OH-AAZO and not exposed to light (Azo, no light or ANL). The third is where the polymeric substrate is not coated with OH-AAZO and is exposed to light (no Azo, light or NAL). The fourth is where the polymeric substrate is not coated with OH-AAZO and is not exposed to light (no Azo, no light or NANL)."}}, "note": "“Also recorded” adds a separate entry of the source."}
{"molecule": "C=CC(=O)Oc1ccccc1/N=N/c1ccccc1O", "note": "[OH-AAZO, phenolic acrylated azobenzene]", "values": [{"measurement": "S. oralis growth on coated substrate and in media", "setting": "[1]", "value": "did not grow on the coated substrate nor in the media; also recorded: antibacterial effect was only observed"}, {"measurement": "DIBAC4(3) fluorescence of S. mutans", "setting": "S. mutans [2]; 5 mg/mL coated substrate, relative to uncoated control", "value": "slight reduction"}, {"measurement": "DIBAC4(3) fluorescence of S. mutans", "setting": "S. mutans [2]; 25 mg/mL coated substrate", "value": "drop in fluorescence to zero"}, {"measurement": "DIBAC4(3) fluorescence of S. mutans", "setting": "S. mutans [2]; 50 mg/mL coated substrate", "value": "drop in fluorescence to zero; also recorded: dropped to zero"}, {"measurement": "live and dead bacteria on substrate, live-dead stain", "setting": "S. mutans biofilm; 1.5% OH-AAZO bulk substrate, 24 h", "value": "high amounts of dead bacteria (lighter) and little to no live bacteria; also recorded: did not grow"}, {"measurement": "live and dead bacteria on substrate, live-dead stain", "setting": "S. mutans biofilm; 2% OH-AAZO bulk substrate, 24 h", "value": "high amounts of dead bacteria (lighter) and little to no live bacteria; also recorded: did not grow"}, {"measurement": "live and dead bacteria on substrate, live-dead stain", "setting": "S. mutans biofilm; coated substrate, 24 h biofilm growth, compared to uncoated control", "value": "high amounts of dead bacteria (lighter) and little to no live bacteria"}, {"measurement": "cytocompatibility", "setting": "[3]", "value": "cytocompatible"}, {"measurement": "S. pneumoniae growth on coated substrate and in media", "setting": "[4]", "value": "did not grow on the coated substrate nor in the media"}, {"measurement": "S. mutans growth", "setting": "S. mutans [5]; exposed to light (AL), over 48 hr", "value": "no growth"}, {"measurement": "S. mutans growth", "setting": "S. mutans [5]; no light (ANL), first 33 hr", "value": "minimal growth"}, {"measurement": "S. mutans growth", "setting": "S. mutans [5]; no light (ANL), t=48 hr", "value": "some minimal biofilm growth"}]}
